# Tested on: mitochondria of triticale protoplasts
# Assay: qRT-PCR of gfp mRNA, protoplasts transfected with pWMaadA16GFP
# Assay type: cell-based
# Conditions: gfp reporter construct
# Excerpt: FIG. 19 is a plot showing the level of expression (fold increase, average of 4 replicates) of GFP in triticale protoplasts transfected with the pWMaadA16GFP plasmid in the presence of mTP1 (SEQ ID NO: 1), mTP2 (SEQ ID NO: 2), mTP3 (SEQ ID NO: 3), mTP4 (SEQ ID NO: 4) or mTP5 (SEQ ID NO: 5) compared to the level of expression (fold increase) of the internal control elongation factor 1a (EF1a), as measured by quantitative real time PCR of mRNA levels; and
# Wheat mitochondrial aadA16GFP reporter plasmid (pWMaadA16GFP, FIG. 11) is a 4587 base pair wheat specific mitochondrial transformation vector, which targets insertions into the fourth repeat region between the trnfM and rm18 gene cluster which is repeated three times in the Triticum aestivum mitochondrial genome. The insertion site is in the Triticum aestivum mitochondrial genome at nucleotides 300805-300878 and 300880-302834 (GenBank accession No. AP008982.1). A multiple cloning site is introduced following the tmfM target insertion sequence. The selection marker gene is an organelle codon specific aad-gfp fusion gene, which facilitates a dual selection method of spectinomycin resistance through an aadA derivative and visual detection by GFP fluorescence (GenBank accession No. ABX39486; Khan and Maliga, Nat. Biotechnol. (1999 September) 17(9): 910-5). The selection marker gene is driven by the Triticum aestivum mitochondrial atpA gene promoter (GenBank accession No. X54387.1). The aad-gfp fusion gene is terminated with the TpsbA terminator sequence derived from the Triticum aestivum mitochondrial genome at nucleotides 62871-62565 (GenBank accession No. AP008982.1).
# (§1) The dsDNA construct (pWMaadA16GFP for mitochondrial expression or pWCaadA16GFP for expression in chloroplasts) is combined with the mTP (for mitochondrial expression) or cTP (for expression in chloroplasts) in a final volume of 100 μl of CPW solution. For experiments using mTP1 (SEQ ID NO: 1), mTP2 (SEQ ID NO: 2), mTP3 (SEQ ID NO: 3), or mTP5 (SEQ ID NO: 5), peptides (scaled up from 100 ng, at four times the concentration needed to cause a DNA shift in the gel mobility shift assay (Table 7)) are combined with the pWMaadA16GFP construct (5 μg). For experiments using the remaining oTPs, peptides (30 μg) are combined with the appropriate dsDNA construct (1.5 μg). The mixture is incubated for 10 minutes at room temperature, then incubated with isolated triticale mesophyll protoplasts (500 μl, 10^6 protoplasts/ml, prepared as described in Example 2) for 1 h in the dark at room temperature. CPW solution (500 μl) is added and the mixture is incubated in the dark for 24 h. The cells are imaged using confocal microscopy, as described in Example 2, using MitoTracker® Orange staining to visualize mitochondria and chlorophyll autofluorescence to visualize chloroplasts.
# (§2) cDNA is generated using a First Strand Synthesis kit (Invitrogen). RNA (1 μg) is added to each sample and the manufacturer's protocol for synthesis followed, with the exception that the volume of the reaction mixture is increased from 20 μl to 30 μl. A negRT sample containing all reagents but no RNA is included in the cDNA synthesis as a negative control.
# Standard curves are generated for both elongation factor 1a (EF1a) (internal control) and green fluorescent protein (GFP) (test) genes. […]
# (§3) Real time PCR reactions are performed using QuantiTect™ SYBR™ Green PCR Master Mix (Qiagen) in a 20 μl reaction volume. […]
row,Sequence,GFP expression by mitochondria confirmed by qRT-PCR
1,MFSYLPRYPLRAASARALVRATRPSYRSALLRYQ (listed as Triticum aestivum) [mTP1],GFP is expressed
2,MAAWMRSLFSPLKKLWIRMH (Zea mays) [mTP2],GFP is expressed
3,MKLLWRLILSRKW (listed as Arabidopsis thaliana) [mTP3],GFP is expressed
4,MWWRRSRTNSLRYT (listed as Arabidopsis thaliana) [mTP4],GFP is expressed
5,MLFRLRRSVRLRGLLA (listed as Arabidopsis thaliana) [mTP5],GFP is expressed

# Tested on: chloroplasts of triticale protoplasts
# Assay: qRT-PCR of gfp mRNA, protoplasts transfected with pWCaadA16GFP
# Assay type: cell-based
# Conditions: gfp reporter construct
# Excerpt: FIG. 20 is a plot showing the level of expression (fold increase, average of 4 replicates) of GFP in triticale protoplasts transfected with the pWCaadA16GFP plasmid in the presence of cTP1 (SEQ ID NO: 6), cTP2 (SEQ ID NO: 7), cTP3 (SEQ ID NO: 8), cTP4 (SEQ ID NO: 9) or cTP5 (SEQ ID NO: 10) compared to the level of expression (fold increase) of the internal control elongation factor 1a (EF1a), as measured by quantitative real time PCR of mRNA levels.
# Wheat chloroplast aadA16GFP reporter plasmid (pWCaadA16GFP, FIG. 12) is a 4212 base pair wheat specific plastid transformation vector, which targets insertions into the tml-tmA inverted repeat regions of the Triticum aestivum plastid genome at nucleotides 92850-93727 and 93794-94671 (GenBank accession No. AB042240.3). A multiple cloning site is introduced following the tml target insertion sequence. The selection marker gene is an organelle codon specific aad-gfp fusion gene, which facilitates a dual selection method of spectinomycin resistance through an aadA derivative and visual detection by GFP fluorescence (GenBank accession No. ABX39486; Khan and Maliga, Nat. Biotechnol. (1999 September) 17(9): 910-5). The selection marker gene is driven by the Triticum aestivum plastid genome promoter (psbA) at nucleotides 1282-1153 (GenBank accession No. AB042240.3). The aad-gfp fusion gene is terminated with the rice psbA terminator sequence derived from chloroplast transformation vector pVSR326 nucleotides 4014-4387 (GenBank accession No. AF527485.1).
# as §1, §2
# Standard curves are generated for both elongation factor 1a (EF1a) (internal control) and green fluorescent protein (GFP) (test) genes. The EF1a curve is generated by pooling 6 μl of each cDNA sample (excluding the negRT control), then carrying out a serial dilution of 0.5 for 5 more dilutions. […]
# as §3
row,Sequence,GFP expression by chloroplasts confirmed by qRT-PCR
1,MQTLTASSSVSSIQRHRPHPAGRRSSSVTFS (listed as Triticum aestivum) [cTP2],GFP is expressed
2,MAALIPAIASLPRAQVEKPHPMPVSTRPGLVS (listed as Triticum aestivum) [cTP4],GFP is expressed
3,MSSPPPLFTSCLPASSPSIRRDSTSGSVTSPLR (listed as Arabidopsis thaliana) [cTP5],GFP is expressed
4,MGGCVSTPKSCVGAKLR (listed as Arabidopsis thaliana) [cTP1],GFP is expressed

# — patent US20140196172A1, “Organelle Targeting Nanocarriers” (Her Majesty the Queen in Right of Canada, as Repre sented …, priority 2011, published 2014)
